Converted amounts (≈) assume the structure as drawn.
Columns and labels:
[1] = tested on: S. aureus ATCC 43300 (MRSA); assay: Inhibition zone against MDRB, agar plate diffusion; format: cell-based
Candida albicans [2] = assay: Inhibition zone, agar plate diffusion; format: cell-based; conditions: read-out: Inhibition zone (IZ)
Method: (§1) Antimicrobial activities of the newly formed Schiff bases (6a–d, 7a–d, 8a–d, and 9a–d) and reference drugs were evaluated against three Gram-positive, three Gram-negative, and two fungi strain at Al-Azhar University, Cairo, Egypt. The inhibition zones (IZ, in mm ± standard deviation) and the minimal inhibitory concentration (MIC) (μg/mL) were determined by the conventional paper disk diffusion method.
(§2) In Vitro Antimicrobial Activities
(§3) The antimicrobial activities inhibition zone (IZ, mm±standard deviation) of pyrazole Schiff bases ( 6a-d , 7a-d, 8a-d and 9a-d ) was measurement according to the agar plate diffusion method. Briefly, 100 µl of the […]
(§4) […] of each sample (at 0.5 mg/mL) was added to each well (10 mm diameter holes cut in the agar gel). The plates were incubated for 24 h at 37 °C (for bacteria and yeast) and for 72 h at 27 °C (for filamentous fungi), each test was repeated three times. After incubation, the microorganism's growth was observed. […]
(§5) drugs while Amphotericin B was used as standard antifungal drug. The resulting inhibition zone diameters were measured in millimeters and used as criterion for the antimicrobial activity. Solvent controls (DMSO) were included in every experiment as negative controls. DMSO was used for dissolving […]
(§6) the tested microorganisms. […]
(§7) Bacteria were grown on nutrient agar medium, while fungi and yeast were grown on Sabouraud agar medium. […]

Fusarium oxysporum [3] = assay: Inhibition zone, agar plate diffusion; format: cell-based; conditions: read-out: Inhibition zone (IZ)
Method: as §1, §2, §3, §4, §5, §6, §7

Staphylococcus aureus [4] = assay: Inhibition zone, agar plate diffusion; format: cell-based; conditions: read-out: Inhibition zone (IZ)
Method: as §1, §2, §3, §4, §5, §6, §7

Salmonella typhi [5] = assay: Inhibition zone, agar plate diffusion; format: cell-based; conditions: Salmonella enterica, St, mm ± standard deviation, sample at 0.5 mg/mL, read-out: Inhibition zone (IZ)
Method: as §1, §2, §3, §4, §5, §6, §7

S. aureus ATCC 33591 [6] = assay: MIC/MBC against MDRB, paper disk diffusion; format: cell-based; conditions: Staphylococcus aureus, ATCC33591
Text: (§8) The inhibition zone (IZ, mm±standard deviation) of pyrazole Schiff bases ( 6b, 7b, 7c, 8a, 8d and 9b) was
(§9) measurement according to the agar plate diffusion method against a panel of multidrug-resistant bacteria
(MDRB). […]

E. coli ATCC BAA-196 [7] = assay: MIC/MBC against MDRB, paper disk diffusion; format: cell-based; conditions: Escherichia coli, ATCCBAA196
Text: as §8, §9
(MDRB). […]

[8] = tested on: S. aureus ATCC 43300 (MRSA); assay: MIC/MBC against MDRB, paper disk diffusion; format: cell-based; conditions: Staphylococcus aureus
Text: as §8, §9
(MDRB). […]

[9] = tested on: P. aeruginosa ATCC BAA-2111; assay: MIC/MBC against MDRB, paper disk diffusion; format: cell-based; conditions: Pseudomonas aeruginosa, ATCCBAA2111
Text: as §8, §9
(MDRB). […]

[10] = tested on: hepatocellular carcinoma cell line (HepG2); assay: Antiproliferative activity, MTT assay; format: cell-based, human
Method: (§10) 3-[4, 5-Dimethyl-2-thiazolyl)-2, 5-diphenyl-2 H-tetrazolium bromide (MTT) protocol is based on the cleavage of the tetrazolium salt by mitochondrial dehydrogenases in viable cells. Cells were dispensed in a 96 well sterile microplate (5 x 10^4 cells/well), and incubated at 37 °C with series of different concentrations, in DMSO, of each tested compound or Doxorubicin ® (positive control) for 48 h in a serum free medium prior to the MTT assay. After incubation, media were carefully removed, 40 µL of MTT (2.5 mg/mL) were added to each well and then incubated for an additional 4 h. The purple formazan dye crystals were solubilized by the addition of 200 µL of DMSO. The absorbance was measured at 590 nm using a SpectraMax® Paradigm® Multi-Mode microplate reader. The relative cell viability was expressed as the mean percentage of viable cells compared to the untreated control cells.
(§11) All experiments were conducted in triplicate and repeated in three different days. All the values were represented as mean ± SD. IC 50s were determined by probit analysis using SPSS software program (SPSS

[11] = tested on: mammary gland breast cancer cell line (MCF-7); assay: Antiproliferative activity, MTT assay; format: cell-based, human; conditions: Homo sapiens, MCF7, 48 h, read-out: IC50 MCF-7
Method: as §10, §11

[12] = tested on: P. aeruginosa ATCC BAA-2111; assay: Inhibition zone against MDRB, agar plate diffusion; format: cell-based
Bacillus subtilis [13] = assay: MIC/MBC, paper disk diffusion; format: cell-based
Method: as §1
(§12) In Vitro Antimicrobial Activities […]
(§13) DMSO was used for dissolving […]
(§14) the tested microorganisms.
(§15) The minimum inhibitory concentration (MIC), the minimum bactericidal concentration (MBC, µg/ml) and […]
(§16) and 9b) were determined by the conventional technique termed paper disk diffusion, by applying paper […]
(§17) Bacteria were grown on nutrient agar medium, while fungi and yeast were grown on Sabouraud agar medium. The purified streptomycin was dissolved in […]
(§18) inoculated with test organism. Growth inhibition was examined after 24 hr. from incubation at 37 °C for bacteria and after 72 hr. incubation at 27 °C for fungi and yeast. Each test was repeated three times. MIC was expressed as the lowest concentration inhibiting test organism’s growth. […]

Escherichia coli [14] = assay: MIC/MBC, paper disk diffusion; format: cell-based; conditions: Escherichia coli
Method: as §1, §12, §13, §14, §15, §16, §17, §18

Enterococcus faecalis [15] = assay: MIC/MBC, paper disk diffusion; format: cell-based
Method: as §1, §12, §13, §14, §15, §16, §17, §18

Staphylococcus aureus [16] = assay: MIC/MBC, paper disk diffusion; format: cell-based
Method: as §1, §12, §13, §14, §15, §16, §17, §18

Pseudomonas aeruginosa [17] = assay: MIC/MBC, paper disk diffusion; format: cell-based; conditions: Pseudomonas aeruginosa
Method: as §1, §12, §13, §14, §15, §16, §17, §18

Salmonella typhi [18] = assay: MIC/MBC, paper disk diffusion; format: cell-based
Method: as §1, §12, §13, §14, §15, §16, §17, §18

E. coli ATCC BAA-196 [19] = assay: Inhibition zone against MDRB, agar plate diffusion; format: cell-based
S. aureus ATCC 33591 [20] = assay: Inhibition zone against MDRB, agar plate diffusion; format: cell-based
Candida albicans [21] = assay: MIC/MFC, paper disk diffusion; format: cell-based; conditions: Candida albicans
Method: as §1, §12, §13, §14, §15, §16, §17, §18

Fusarium oxysporum [22] = assay: MIC/MFC, paper disk diffusion; format: cell-based; conditions: Fusarium oxysporum
Method: as §1, §12, §13, §14, §15, §16, §17, §18

Bacillus subtilis [23] = assay: Inhibition zone, agar plate diffusion; format: cell-based; conditions: read-out: Inhibition zone (IZ)
Method: as §1, §2, §3, §4, §5, §6

Escherichia coli [24] = assay: Inhibition zone, agar plate diffusion; format: cell-based; conditions: read-out: Inhibition zone (IZ)
Method: as §1, §2, §3, §4, §5, §6

Enterococcus faecalis [25] = assay: Inhibition zone, agar plate diffusion; format: cell-based; conditions: read-out: Inhibition zone (IZ)
Method: as §1, §2, §3, §4, §5, §6

Pseudomonas aeruginosa [26] = assay: Inhibition zone, agar plate diffusion; format: cell-based; conditions: read-out: Inhibition zone (IZ)
Method: as §1, §2, §3, §4, §5, §6

COc1ccc(Nc2n[nH]c(N=Cc3c(C)nn(-c4ccccc4)c3Cl)c2C(=O)Nc2ccccc2)cc1 [7b, 5-((5-Chloro-3-methyl-1-phenyl-1H-pyrazol-4-yl)methyleneamino)-3-(p-methoxyphenylamino)-N-phenyl-1H-pyrazole-4-carboxamide]
Mean Diameter of Inhibition Zone against MDRB [1]: 18 ± 0.11 mm
zone of inhibition at 500 µg/mL (Candida albicans [2]): 21 ± 0.2 mm
zone of inhibition at 500 µg/mL (Fusarium oxysporum [3]): 17 ± 0.45 mm
zone of inhibition at 500 µg/mL (Staphylococcus aureus [4]): 23 ± 0.55 mm
zone of inhibition at 500 µg/mL (Salmonella typhi [5]): 22 ± 0.12 mm
MBC (S. aureus ATCC 33591 [6]): 16 µg/mL (≈ 30.4 µM)
MIC (S. aureus ATCC 33591 [6]): 8.88 µg/mL (≈ 16.9 µM)
MBC (E. coli ATCC BAA-196 [7]): 18.5 µg/mL (≈ 35.2 µM)
MIC (E. coli ATCC BAA-196 [7]): 9.25 µg/mL (≈ 17.6 µM)
MBC [8]: 15.6 µg/mL (≈ 29.7 µM)
MIC [8]: 7.81 µg/mL (≈ 14.8 µM)
MBC [9]: 15.6 µg/mL (≈ 29.7 µM)
MIC [9]: 7.81 µg/mL (≈ 14.8 µM)
Fold against doxorubicin (IC50) ([10]; HepG-2): 0.54 fold
IC50 ([10]; Homo sapiens, HepG2, 48 h, read-out: IC50 HepG-2): 7.18 ± 0.49 µM
IC50 [11]: 4.81 ± 0.25 µM
Mean Diameter of Inhibition Zone against MDRB [12]: 21 ± 0.33 mm
Fold more potent than Tetracycline (MIC) (Bacillus subtilis [13]; B. subtilis): 5 fold
MIC (Bacillus subtilis [13]; Bacillus subtilis): 5.57 µg/mL (≈ 10.6 µM)
MBC (Bacillus subtilis [13]; Bacillus subtilis, B. subtilis): 10.6 µg/mL (≈ 20.1 µM)
MIC (Escherichia coli [14]): 7.81 µg/mL (≈ 14.8 µM)
MBC (Escherichia coli [14]; E. coli): 12.5 µg/mL (≈ 23.7 µM)
MIC (Enterococcus faecalis [15]): 3.9 µg/mL (≈ 7.41 µM)
MBC (Enterococcus faecalis [15]; E. faecalis): 6.63 µg/mL (≈ 12.6 µM)
Fold more potent than Tetracycline (MIC) (Staphylococcus aureus [16]; S. aureus): 32 fold
MIC (Staphylococcus aureus [16]; Staphylococcus aureus): 1.95 µg/mL (≈ 3.71 µM)
MBC (Staphylococcus aureus [16]; Staphylococcus aureus, S. aureus): 3.7 µg/mL (≈ 7.03 µM)
MIC (Pseudomonas aeruginosa [17]): 31.2 µg/mL (≈ 59.4 µM)
MBC (Pseudomonas aeruginosa [17]; P. aeruginosa): 59.4 µg/mL (≈ 113 µM)
Fold more potent than Tetracycline (MIC) (Salmonella typhi [18]): 8 fold
Fold more potent than the standard drug (MBC) (Salmonella typhi [18]; S. typhi): ~6.6 fold
MIC (Salmonella typhi [18]; Salmonella enterica, S. typhi): 3.9 µg/mL (≈ 7.41 µM)
MBC (Salmonella typhi [18]; Salmonella enterica, S. typhi, read-out: MBC): 6.63 µg/mL (≈ 12.6 µM)
Mean Diameter of Inhibition Zone against MDRB (E. coli ATCC BAA-196 [19]): 20 ± 0.44 mm
Mean Diameter of Inhibition Zone against MDRB (S. aureus ATCC 33591 [20]): 15 ± 0.41 mm
MFC (Candida albicans [21]): 28.1 µg/mL (≈ 53.4 µM)
MIC (Candida albicans [21]): 15.6 µg/mL (≈ 29.7 µM)
MFC (Fusarium oxysporum [22]): 46.9 µg/mL (≈ 89.1 µM)
MIC (Fusarium oxysporum [22]): 31.2 µg/mL (≈ 59.4 µM)
zone of inhibition at 500 µg/mL (Bacillus subtilis [23]): 28 ± 0.16 mm
zone of inhibition at 500 µg/mL (Escherichia coli [24]): 21 ± 0.14 mm
zone of inhibition at 500 µg/mL (Enterococcus faecalis [25]): 25 ± 0.3 mm
zone of inhibition at 500 µg/mL (Pseudomonas aeruginosa [26]): 24 ± 0.78 mm

— publication PMC7321065, “Discovery of New Schiff Bases Tethered Pyrazole Moiety: Design, Synthesis, Biological Evaluation, and Molecular Docking Study as Dual Targeting DHFR/DNA Gyrase Inhibitors with Immunomodulatory Activity” (Molecules, 2020)
